# Measured values published in patent publication US20240228457A1, “AKT3 MODULATORS” (Georgiamune Inc., priority 2020, published 2024).
# Biological target: T1, Akt3 (Homo sapiens, UniProt Q9Y243)
# T1 construct: endogenous in cells; host or cells: human CD4+/CD45RA+/CD25- naive T cells under iTreg induction conditions
# Test: Akt3 inhibition activity of selected compounds
# Format: cell-based
# T1 sequence (Q9Y243 whole entry): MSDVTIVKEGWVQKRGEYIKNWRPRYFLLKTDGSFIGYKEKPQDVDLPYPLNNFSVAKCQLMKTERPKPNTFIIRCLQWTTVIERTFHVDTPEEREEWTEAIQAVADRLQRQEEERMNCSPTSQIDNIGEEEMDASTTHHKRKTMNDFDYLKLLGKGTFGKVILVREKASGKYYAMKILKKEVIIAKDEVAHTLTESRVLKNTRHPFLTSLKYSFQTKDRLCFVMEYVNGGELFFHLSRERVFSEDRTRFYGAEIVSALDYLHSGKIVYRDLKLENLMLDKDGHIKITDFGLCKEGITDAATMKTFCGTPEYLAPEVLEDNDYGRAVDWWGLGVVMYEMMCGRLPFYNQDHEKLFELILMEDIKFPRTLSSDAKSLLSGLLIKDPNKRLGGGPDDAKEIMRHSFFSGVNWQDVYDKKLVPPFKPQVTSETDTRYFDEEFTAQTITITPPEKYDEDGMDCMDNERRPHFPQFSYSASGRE
row,Structure (SMILES),IC50 [µM]
1,"O=C(Nc1ccc(Nc2ccncc2)cc1)c1cccc(Nc2ccnc3ccc(F)cc23)c1 [Compound 3, 3-((6-fluoroquinolin-4-yl)amino)-N-(4-(pyridin-4-ylamino)phenyl)benzamide]",< 2
2,"Cc1cccc2nccc(Nc3cccc(C(=O)Nc4ccc(Nc5ccncc5)cc4)c3)c12 [Compound 18, 3-((5-methylquinolin-4-yl)amino)-N-(4-(pyridin-4-ylamino)phenyl)benzamide]",< 2
3,"Nc1cc(Nc2ccc(C(=O)Nc3cccc(Nc4ccncc4)c3)cc2)ccn1 [Compound 19, 4-(2-aminopyridin-4-ylamino)-N-(3-(pyridin-4-ylamino)phenyl)benzamide]",< 5
4,"Cc1cc(Nc2ccc(C(=O)Nc3cccc(Nc4ccncc4)c3)cc2)cc(N)n1 [Compound 20, 4-(2-amino-6-methylpyridin-4-ylamino)-N-(3-(pyridin-4-ylamino)phenyl)benzamide]",< 5
5,"Cc1c(Nc2ccc(C(=O)Nc3cccc(Nc4ccncc4)c3)cc2)ccnc1N [Compound 21, 4-(2-amino-3-methylpyridin-4-ylamino)-N-(3-(pyridin-4-ylamino)phenyl)benzamide]",< 2

# Biological target: T1, Akt3
# Test: Akt3 activation activity of selected compounds
# Format: cell-based
row,Structure (SMILES),EC50 [µM]
1,"N#Cc1ccc2nccc(Nc3cccc(C(=O)Nc4ccc(Nc5ccncc5)cc4)c3)c2c1 [Compound 2, 3-((6-cyanoquinolin-4-yl)amino)-N-(4-(pyridin-4-ylamino)phenyl)benzamide]",< 5
